The test system of experiment [1] is Peripheral blood mononuclear cells. Put plainly: Mixed lymphocyte reaction (MLR) test. It is filed as cell-based, human. Particulars: 50% suppression of the MLR. The protocol:
Pteridine derivatives were first dissolved (10 mM) in dimethylsulfoxide (hereinafter referred as DMSO) and further diluted in culture medium before use for the following in vitro experiments. The commercially available culture medium consisted of RPMI-1640+10% foetal calf serum (FCS). Some pteridine derivatives described the previous examples were tested in the following lymphocyte activation tests:
(§1) Peripheral blood mononuclear cells (hereinafter referred as PBMC) were isolated from heparinized peripheral blood by density gradient centrifugation over Lymphoprep (Nycomed, Maorstua, Norway). Allogeneic PBMC or Eppstein-Barr Virus-transformed human B cells [commercially available under the trade name RPMI1788 (ATCC name CCL156)] which strongly express B7-1 and B7-2 antigens were used as stimulator cells after irradiation with 30 Gy. MLR was performed in triplicate wells. After 5 days incubation at 37° C., 1 μCi [^3H]-thymidine was added to each cup. After a further 16 hours incubation, cells were harvested and counted in a β-counter. Inhibition of proliferation by a compound (drug) described in some of the previous examples was counted using the formula:
[formula] wherein cpm is the thymidine count per minute. The MLR assay is regarded by those skilled in the art as an in vitro analogue of the transplant rejection since it is based on the recognition of allogeneic major histocompatibility antigens on the stimulator leukocytes, by responding lymphocytes. Assays for CD3 and CD 28
Pteridine derivatives were first dissolved (10 mM) in dimethylsulfoxide (hereinafter referred as DMSO) and further diluted in culture medium before use for the following in vitro experiments. The commercially available culture medium consisted of RPMI-1640+10% foetal calf serum (FCS). Some pteridine derivatives described in the previous examples (as indicated in table 3 below) were tested in the following mixed lymphocyte reaction (MLR) assay.
as §1, with “CCL156)]which” for “CCL156)] which”
[formula] wherein cpm is the thymidine count per minute. The MLR assay is regarded by those skilled in the art as an in vitro analogue of the transplant rejection since it is based on the recognition of allogeneic major histocompatibility antigens on the stimulator leukocytes, by responding lymphocytes.

Another experiment has as its system human TNF-α. The experiment is described as follows: TNF-α assay: suppression of TNF-α production by LPS-stimulated PBMC (ELISA). Format: cell-based. Particulars: LPS 1 μg/ml, 72 hours. The protocol:
Peripheral blood mononuclear cells (herein referred as PBMC), in response to stimulation by lipopolysaccharide (LPS), a gram-negative bacterial endotoxin, produce various […], in particular human TNF-α and IL-1 β. Inhibition of the activation of PBMC can therefore be measured by the level of suppression of the production of TNF-α or IL-1 β by PBMC in response to stimulation by LPS.
(§2) Such inhibition measurement was performed as follows: PBMC were isolated from heparinized peripheral blood by density gradient centrifugation over Lymphoprep (commercially available from Nycomed, Norway). LPS was then added to the PMBC suspension in complete medium (10^6 cells/ml) at a final concentration of 1 μg/ml. The pteridine derivative to be tested was added at different concentrations (0.1 μM, 1 μM and 10 μM) and the cells were incubated at 37° C. for 72 hours in 5% CO2. The supernatants were collected, then TNF-α and/or IL-1 β concentrations were measured with respectively an anti-TNF-α antibody or an anti-IL-1 β antibody in a sandwich ELISA (Duo Set ELISA human TNFα, commercially available from R&D Systems, United Kingdom). The calorimetric reading of the ELISA was measured by a Multiskan RC plate reader (commercially available from ThermoLabsystems, Finland) at 450 nm (reference wavelength: 690 nm). Data analysis was performed with Ascent software 2.6. (also from ThermoLabsystems, Finland): a standard curve (recombinant human TNFα) was drawn and the amount (pg/ml) of each sample on the standard curve was determined.
The % suppression of human TNFα production or human IL-1 β by the pteridine derivatives of the invention (drugs) was calculated using the formula: […]
Peripheral blood mononuclear cells (herein referred as PBMC), in response to stimulation by lipopolysaccharide (hereinafter LPS), a gram-negative bacterial endotoxin, produce various […], in particular human TNF-α. Inhibition of the activation of PBMC can therefore be measured by the level of suppression of the production of TNF-α by PBMC in response to stimulation by LPS.
as §2, with “TNF-α” for “TNF-α and/or IL-1 β”, “with” for “with respectively”, “anti-TNF-α” for “anti-TNF-α antibody or an anti-IL-1 β”, “TNF-α,” for “TNFα,”, “colorimetric” for “calorimetric”
The % suppression of human TNFα production by the pteridine derivatives of the invention (drugs) was calculated using the formula: […]

For the compound `CCS(=O)(=O)Nc1cccc(-c2cnc3nc(N)nc(N4CCOCC4)c3n2)c1` [Example 97, 2-amino-4-morpholino-6-(3-ethylsulfonylaminophenyl)pteridine], the half-inhibitory concentration (IC50) in experiment [1] (Homo sapiens, PBMC, Table 3) is 3.3 µM; in the experiment with human TNF-α (Homo sapiens, PBMC, Table 4), > 10 µM.

For `COc1ccc(-c2cnc3nc(N)nc(N4CCSCC4)c3n2)cc1OC` [Example 118], the 50% inhibitory concentration (IC50) in experiment [1] (Table 3) came to 0.4 µM; in the experiment with human TNF-α (Table 4) it was 0.5 µM.

Turning to `Nc1nc(N2CCOCC2)c2nc(-c3ccc(O)cc3)cnc2n1` [Example 102, 2-amino-4-morpholino-6-(4-hydroxyphenyl)pteridine], the IC50 in experiment [1] (Homo sapiens, PBMC, Table 3) was 4.3 µM; in the experiment on human TNF-α (Homo sapiens, PBMC, Table 4), 2.1 µM.

As to `COc1ccc(-c2cnc3nc(N)nc(NCc4cccs4)c3n2)cc1OC` [Example 116], the IC50 was found to be 4.1 µM in experiment [1] (Table 3) and 7.2 µM in the experiment with human TNF-α (Table 4).

On to `CC[C@@H](C)Nc1nc(N)nc2ncc(-c3ccc(OC)c(OC)c3)nc12` [Example 119], for which the IC50 came to 0.5 µM in experiment [1] (Table 3) and 0.2 µM in the experiment with human TNF-α (Table 4).

Regarding `Nc1ccc(-c2cnc3nc(N)nc(N4CCOCC4)c3n2)cc1` [Example 74, 2-amino-morpholino-6-(4-aminophenyl)pteridine], the IC50 in experiment [1] (Table 3) was 1.1 µM; with human TNF-α (Table 4) it was 2.5 µM.

In the case of `COc1ccc(-c2cnc3nc(N)nc(NCCc4ccccc4)c3n2)cc1OC` [Example 114], the IC50 in experiment [1] (Table 3) was found to be 6 µM; in the experiment on human TNF-α (Table 4), 7.1 µM.

In the case of `COc1ccc(-c2cnc3nc(N)nc(N4CCC(C)CC4)c3n2)cc1OC` [Example 115], the IC50 in experiment [1] (Table 3) is 0.8 µM; in the experiment with human TNF-α (Table 4) it was 0.3 µM.

Turning to `CC[C@H](C)Nc1nc(N)nc2ncc(-c3ccc(OC)c(OC)c3)nc12` [Example 120], the IC50 in experiment [1] (Table 3) came to 0.2 µM; with human TNF-α (Table 4), 0.3 µM.

As to `CC(C)(C)OC(=O)N[C@@H](Cc1ccccc1)C(=O)Nc1cccc(-c2cnc3nc(N)nc(N4CCOCC4)c3n2)c1` [Example 98, 2-amino-4-morpholino-6-[3-Boc-(L)-phenylalanine-aminophenyl]pteridine], the values for the IC50 (in experiment [1] (Table 3); with human TNF-α (Table 4)) were 3.9 µM and 2.9 µM, respectively.

As for `CCOc1ccc(-c2cnc3nc(N)nc(N4CCOCC4)c3n2)cc1` [Example 103, 2-amino-4-morpholino-6-(4-ethoxyphenyl)pteridine], the IC50 in experiment [1] (Homo sapiens, PBMC, Table 3) is 3.7 µM; in the experiment with human TNF-α (Homo sapiens, PBMC, Table 4) it was > 10 µM.

With `CCCOc1ccc(-c2cnc3nc(N)nc(N4CCOCC4)c3n2)cc1` [Example 107, 2-amino-4-morpholino-6-(4-propoxy-phenyl)pteridine], the half-maximal inhibitory concentration (IC50) in experiment [1] (Homo sapiens, PBMC, Table 3) is 6.8 µM; in the experiment with human TNF-α (Homo sapiens, PBMC, Table 4), > 10 µM.

In the case of `Cc1ccc(-c2cnc3nc(N)nc(OC(C)C)c3n2)cc1C` [Example 32, 2-amino-6-(3,4-dimethylphenyl)-4-isopropoxypteridine], the half-inhibitory concentration (IC50) was 10 µM in experiment [1] (Homo sapiens, PBMC, Table 1) and 6.7 µM in the experiment with human TNF-α (Homo sapiens, PBMC, Table 2).

For `CC(=O)Nc1ccc(-c2cnc3nc(N)nc(N4CCOCC4)c3n2)cc1` [Example 72, 2-amino-4-morpholino-6-(4-acetanilide)pteridine], the concentration for half-maximal inhibition (IC50) stood at 8.6 µM in experiment [1] (Table 3) and 8.4 µM in the experiment on human TNF-α (Table 4).

In the case of `COc1ccc(-c2cnc3nc(N)nc(N(CCO)CCO)c3n2)cc1OC` [Example 112], the IC50 in experiment [1] (Table 3) was 6 µM; with human TNF-α (Table 4), 3.4 µM.

Values taken from patent US7501513B2, “Immunosuppressive effects of pteridine derivatives” (4 AZA Bioscience NV, priority 2003, dated 2009).
